The record followed here is PubChem BioAssay AID720715 (Broad Institute, 2013).

The structures appear in SMILES notation. Results filed as inconclusive are left out. Activity calls are given as the source filed them. How the calls were made is not given here.

Test system in one assay: not listed separately
In words: HEK293 cell cytotoxicity, dose response, cytotoxicity control, plate reader, dry powder, set 2 (AID 720715). Conditions: HEK293 cytotoxicity, plate reader; at 12 µM (top of the series).
For `O=C(c1nnsc1S(=O)c1ccc(Cl)cc1)N1CCOCC1` (stereo unspecified), the activity change, negative = cytotoxicity was 0.296% (inactive).

The assay is the same for the next values; noted with them: HEK293 cytotoxicity, plate reader; at 26 µM (top of the series).
For `Cc1ccc2cc(CN(CC3CCCO3)C(=O)NC3CCCCC3)c(=O)[nH]c2c1C` (stereo unspecified), the activity change, negative = cytotoxicity was 5.24% (inactive).
As to `Nc1nonc1C(=O)NCCNCc1cc(Br)ccc1OCc1ccc(F)cc1`, the activity change, negative = cytotoxicity is -59.1% (inactive).
Still for that read-out and setting: under `COc1ccc(NS(=O)(=O)c2ccc(C(=O)N3CCCCCC3)cc2)cc1` stands -33.4% (inactive); under `CCOC(=O)C1(Cc2ccc(Cl)cc2)CCN(C(C)Cc2ccc(O)c(OC)c2)CC1` (stereo unspecified), -31.7% (inactive).
Turning to `CC(=O)Nc1cccc(NC(=O)CSc2ncc(-c3ccc(Cl)cc3)n2Cc2ccco2)c1`, the activity change, negative = cytotoxicity is -4.47% (inactive).
The same measure, in the same setting: under `Cc1cc2c(cc(C(=O)N3CCC(C(=O)NC4CCCC4)CC3)n2Cc2c(F)cccc2Cl)o1` stands -24.5% (inactive).
On the same count and under the same terms, under `COc1ccc(NC(=O)c2nc(S(=O)(=O)Cc3cccc(C)c3)ncc2Cl)c(OC)c1` stands -19.6% (inactive).
Take `CC(C)[C@H](NC(=O)OC(C)(C)C)c1nnc(S(=O)(=O)Cc2c(F)cccc2Cl)o1`: the activity change, negative = cytotoxicity was -61.3% (inactive).
On the same count and under the same terms, under `Cc1cc(N2CCCC2=O)cc(C)c1S(=O)(=O)NCCOc1ccc(C(C)(C)C)cc1` stands 57.1% (inactive).
On the same count and under the same terms, next, `O=c1c2ccccc2nc2n1C(CSCc1ccc(Cl)cc1Cl)CS2` (stereo unspecified): -9.98% (inactive); `Fc1ccc(-n2nnnc2-c2cnc(-c3cccs3)nc2C(F)(F)F)cc1`: -31.8% (inactive).
`CC(=O)N1CCN(C(=O)CCc2cc(C(C)(C)C)c(O)c(C(C)(C)C)c2)CC1`: the activity change, negative = cytotoxicity is -13.7% (inactive).
Same read-out and setting: under `COc1ccccc1N1CCN(c2ncc(C(=O)N3CCN(c4cccc(Cl)c4)CC3)c3ccccc23)CC1` stands -7.71% (inactive); under `CCCc1nnc(NC(=O)c2nc(S(=O)(=O)Cc3ccc(C)cc3)ncc2Cl)s1`, -2.77% (inactive); under `COc1cc2ncnc(N[C@H](C)c3ccccc3)c2cc1OC`, 70.1% (inactive).
With `CN(CC(=O)Nc1cccc(S(=O)(=O)N2CCOCC2)c1)CC(=O)Nc1ccc(Cl)c(C(F)(F)F)c1`, the activity change, negative = cytotoxicity is -50% (inactive).
Turning to `CCCOc1ccccc1C1CC(=O)Nc2cc3c(cc21)OCO3` (stereo unspecified), the activity change, negative = cytotoxicity was -19.2% (inactive).

In another assay the test system is HEK293 cytotoxicity, plate reader. Described as above.
Conditions: not given
In the case of `O=C1CSc2ccc(C(=O)Nc3cccc(S(=O)(=O)Nc4ccc(Br)cc4)c3)cc2N1`, the AC50 was 19.3 µM.
For the compound `CCOC(=O)C1CCN(C(=O)c2ccc(OCC(=O)Nc3cccc(C(F)(F)F)c3)c(OC)c2)CC1`, the AC50 was 5.01 µM.
With `COc1cc(CN2CCc3ccccc3C2)ccc1O`, the AC50 was 14.7 µM.
On to `CCOC(=O)c1ccc(NC(=O)Cn2ncc(Cl)c(Cl)c2=O)cc1`, for which the AC50 is 15.1 µM.
`CN(C(=O)COc1ccccc1C(=O)NCCOc1ccccc1)c1ccccc1`: the AC50 is 18.1 µM.
Same read-out and setting: next, `CN(C)c1nc(-c2ccccn2)nnc1-c1ccccc1`: 5.55 µM; `CC(C)(C)NC(=O)CSc1nc2ccc(NC(=O)CSc3nnnn3Cc3ccccc3)cc2s1`: 15.9 µM; `COc1ccc(Nc2nc(N3CCCCC3)c3ccccc3n2)cc1`: 23.8 µM.

Usually AC50 stands for the midpoint of the concentration-response curve, whichever way the signal moves.
